This passage reports G12D_exchange, G12V_exchange and IC50 results from patent publication US20240358702A1, “CYCLIC UREA KRAS INHIBITORS” (INCYTE CORPORATION, priority 2023, published 2024).

The target in one assay is KRAS G12D (Homo sapiens, UniProt P01116, G12D). Nature of the assay: GDP-GTP exchange assay (bodipy-GDP/GppNHp, SOS1), KRAS G12D. The settings on record: KRAS_G12D exchange assay IC50, 4 h pre-incubation, value for the most potent isomer quoted. The assay is classed as biochemical. On the procedure: (§1) The inhibitor potency of the exemplified compounds was determined in a fluorescence based guanine nucleotide exchange assay, which measures the exchange of bodipy-GDP (fluorescently labeled GDP) for GppNHp (Non-hydrolyzable GTP analog) to generate the active state of KRAS in the presence of SOS1 (guanine nucleotide exchange factor). Inhibitors were serially diluted in DMSO and a volume of 0.1 μL was transferred to the wells of a black low volume 384-well plate. 5 μL/well volume of bodipy-loaded KRAS G12D diluted to […] in assay buffer (25 mM Hepes pH 7.5, 50 mM NaCl, 10 mM mgCl2 and 0.01% Brij-35) was added to the plate and pre-incubated with inhibitor for 4 h at ambient temperature. Appropriate controls (enzyme with no inhibitor or with a G12D inhibitor) were included on the plate. The exchange was initiated by the addition of a 5 μL/well volume containing 1 mM GppNHp and 300 nM SOS1 in assay buffer. The 10 μL/well reaction concentration of the bodipy-loaded KRAS G12D, GppNHp, and SOS1 were 2.5 nM, 500 uM, and 150 nM, respectively. The reaction plates were incubated at ambient temperature for 2 h, a time estimated for complete GDP-GTP exchange in the absence of inhibitor. For the KRAS G12V mutant, similar guanine nucleotide exchange assays were used with 2.5 nM as final concentration for the bodipy loaded KRAS proteins and 3 h incubation after adding GppNHp-SOS1 mixture. A cyclic peptide described to selectively bind G12D mutant (Sakamoto et al., BBRC 484.3 (2017), 605-611) or internal compounds with confirmed binding were used as positive controls in the assay plates. Fluorescence intensities were measured on a PheraStar plate reader instrument (BMG Labtech) with excitation at 485 nm and emission at 520 nm.
(§2) Either GraphPad prism or Genedata Screener SmartFit was used to analyze the data. The IC50 values were derived by fitting the data to a four parameter logistic equation producing a sigmoidal dose-response curve with a variable Hill coefficient.
(§3) The symbol “t” indicates IC50≤100 nM, “††” indicates IC50>100 nM but ≤1 μM; and “†††” indicates IC50 is >1 μM but ≤5 μM, “††††” indicates IC50 is >5 μM but ≤10 μM. “NA” indicates IC50 not available.

The target in a further assay is KRAS G12V (Homo sapiens, UniProt P01116, G12V). Briefly: GDP-GTP exchange assay (bodipy-GDP/GppNHp, SOS1), KRAS G12V. The assay is classed as biochemical. The settings on record: KRAS_G12V exchange assay IC50, value for the most potent isomer quoted; for IC50: read-out: G12V_exchange. On the procedure: as §1, §2, §3
KRAS G12V, sequence (P01116 1-188 isoform P01116-2 G12V): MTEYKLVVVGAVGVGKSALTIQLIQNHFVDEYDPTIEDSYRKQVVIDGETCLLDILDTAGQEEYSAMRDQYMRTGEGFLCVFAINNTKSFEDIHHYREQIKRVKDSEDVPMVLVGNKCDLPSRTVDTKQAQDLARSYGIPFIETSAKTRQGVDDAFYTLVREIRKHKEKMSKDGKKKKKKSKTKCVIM

KRAS G12D, sequence (P01116 1-188 isoform P01116-2 G12D): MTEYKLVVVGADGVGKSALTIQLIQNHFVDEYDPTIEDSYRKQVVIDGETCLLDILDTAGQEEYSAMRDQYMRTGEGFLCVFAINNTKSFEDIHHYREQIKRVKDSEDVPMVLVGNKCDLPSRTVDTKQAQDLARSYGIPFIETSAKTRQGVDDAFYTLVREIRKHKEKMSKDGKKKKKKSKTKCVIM

Take `COc1cc(N2CCCN([C@H](C)c3cc4c(C)nc5c(F)c(-c6cccc(Cl)c6Cl)c(CCC#N)cc5c4n3[C@H]3[C@H]4CN[C@@H]3C4)C2=O)ccn1` [Example 22, 3-(1-((1R,4R,5S)-2-azabicyclo[2.1.1]hexan-5-yl)-7-(2,3-dichlorophenyl)-6-fluoro-2-((R)-1-(3-(2-methoxypyridin-4-yl)-2-oxotetrahydropyrimidin-1(2H)-yl)ethyl)-4-methyl-1H-pyrrolo[3,2-c]quinolin-8-yl)propanenitrile]: the G12D_exchange entry at KRAS G12D is listed as “†”. In addition, at KRAS G12V, the G12V_exchange result is “†”.

Regarding `Cc1nc2c(F)c(-c3cccc(Cl)c3Cl)c(CCC#N)cc2c2c1cc([C@@H](C)N1CCCN(c3ccnc(C(F)F)c3)C1=O)n2[C@H]1[C@H]2CN[C@@H]1C2` [Example 31, 3-(1-((1R,4R,5S)-2-azabicyclo[2.1.1]hexan-5-yl)-7-(2,3-dichlorophenyl)-2-((R)-1-(3-(2-(difluoromethyl)pyridin-4-yl)-2-oxotetrahydropyrimidin-1(2H)-yl)ethyl)-6-fluoro-4-methyl-1H-pyrrolo[3,2-c]quinolin-8-yl)propanenitrile], the G12D_exchange entry on KRAS G12D is “†”. The IC50 at KRAS G12V fell in the range of 0.1 to 1 µM.

For `Cc1nc2c(F)c(-c3cccc(Cl)c3Cl)c(CCC#N)cc2c2c1cc([C@@H](C)N1CCCN(c3ccccn3)C1=O)n2[C@H]1[C@H]2CN[C@@H]1C2` [Example 19, 3-(1-((1R,4R,5S)-2-azabicyclo[2.1.1]hexan-5-yl)-7-(2,3-dichlorophenyl)-6-fluoro-4-methyl-2-((R)-1-(2-oxo-3-(pyridin-2-yl)tetrahydropyrimidin-1(2H)-yl)ethyl)-1H-pyrrolo[3,2-c]quinolin-8-yl)propanenitrile], the G12D_exchange entry on KRAS G12D is recorded as “†”. In addition, on KRAS G12V, the G12V_exchange entry is listed as “†”.

Turning to `Cc1nc2c(F)c(-c3cccc(Cl)c3Cl)c(CCC#N)cc2c2c1cc([C@@H](C)N1CCCN(c3ccnc4sccc34)C1=O)n2[C@H]1[C@H]2CN[C@@H]1C2` [Example 38, 3-(1-((1R,4R,5S)-2-azabicyclo[2.1.1]hexan-5-yl)-7-(2,3-dichlorophenyl)-6-fluoro-4-methyl-2-((R)-1-(2-oxo-3-(thieno[2,3-b]pyridin-4-yl)tetrahydropyrimidin-1(2H)-yl)ethyl)-1H-pyrrolo[3,2-c]quinolin-8-yl)propanenitrile], at KRAS G12D, the G12D_exchange result is listed as “†”. Moreover, the G12V_exchange entry on KRAS G12V is “†”.

On to `Cc1nc2c(F)c(-c3cccc(Cl)c3Cl)c(CCC#N)cc2c2c1cc([C@@H](C)N1CCCN(c3ccnnc3)C1=O)n2[C@H]1[C@H]2CN[C@@H]1C2` [Example 9, 3-(1-((1R,4R,5S)-2-azabicyclo[2.1.1]hexan-5-yl)-7-(2,3-dichlorophenyl)-6-fluoro-4-methyl-2-((R)-1-(2-oxo-3-(pyridazin-4-yl)tetrahydropyrimidin-1(2H)-yl)ethyl)-1H-pyrrolo[3,2-c]quinolin-8-yl)propanenitrile], for which, at KRAS G12D, the G12D_exchange entry was “†”. The IC50 on KRAS G12V lay in the range of 0.1 to 1 µM.

As for `Cc1nc2c(F)c(-c3cccc(Cl)c3Cl)c(CCC#N)cc2c2c1cc([C@@H](C)N1CCCN(c3ccn(C)c(=O)c3)C1=O)n2[C@H]1[C@H]2CN[C@@H]1C2` [Example 36, 3-(1-((1R,4R,5S)-2-azabicyclo[2.1.1]hexan-5-yl)-7-(2,3-dichlorophenyl)-6-fluoro-4-methyl-2-((R)-1-(3-(1-methyl-2-oxo-1,2-dihydropyridin-4-yl)-2-oxotetrahydropyrimidin-1(2H)-yl)ethyl)-1H-pyrrolo[3,2-c]quinolin-8-yl)propanenitrile], the IC50 on KRAS G12D (read-out: G12D_exchange) fell in the range of 0.1 to 1 µM; on KRAS G12V, 1 to 5 µM.
